Key:
[1] = system: intracellular MRSA USA400 inside murine macrophage (J774) cells; assay: Clearance of intracellular MRSA in infected J774 macrophages; assay type: cell-based, Staphylococcus aureus; conditions: 24 hours, J774 infected with MRSA USA400
Experimental: The ability of the compound 148 to reduce the burden of intracellular MRSA was evaluated utilizing previously described methods. Murine macrophage cells (J774) were cultured in Dulbecco's Modified Eagle Medium (DMEM) supplemented with 10% FBS at 37° C. with CO2 (5%). J774 cells were exposed to MRSA USA400 cells at a multiplicity of infection of approximately 10:1. After 1 hour of infection, J774 cells were washed with gentamicin (200 μg/mL) to kill extracellular MRSA. The compounds or vancomycin (at 4×MIC and 8×MIC) were subsequently added to each well (four replicates per test agent). Control cells received DMSO at a concentration equal to that in drug-treated cell samples. After 24 hours-incubation at 37° C. with 5% CO2, the test agents were removed. J774 cells were washed and subsequently lysed using 0.1% Triton-X. The solution was serially diluted in phosphate-buffered saline and transferred to TSA plates in order to determine viable MRSA CFU inside the J774 cells. Plates were incubated at 37° C. for 18-22 hour before counting viable CFU/mL. Statistical significance was assessed with two-way ANOVA, with post hoc Dunnet's multiple comparisons test (P<0.05), utilizing GraphPad Prism 6.0 (GraphPad Software, La Jolla, Calif.).
FIG. 6. Examination of the activity of compounds 148 on the clearance of intracellular MRSA present inside infected murine macrophage (J774) cells. […] Data were analyzed via two-way ANOVA, with post hoc Dunnet's multiple comparisons test (P<0.05), utilizing GraphPad Prism 6.0 (GraphPad Software, La Jolla, Calif.). Asterisks (*) represent significant difference between treatment of J774 cells with compound 148 in comparison to vancomycin.

[2] = system: murine macrophage (J774) cell line; assay: In vitro cytotoxicity, MTS assay; assay type: cell-based; conditions: J774, 24 hours incubation
Experimental: Compounds were assayed against a murine macrophage (J774) cell line to determine their in vitro potential toxic effect. Cells were cultured in Dulbecco's Modified Eagle Medium (DMEM) supplemented with 10% FBS at 37° C. with 5% CO2. Control cells received DMSO alone at a concentration equal to that in drug-treated cell samples. The cells were incubated with the compounds (in triplicate) in a 96-well plate at 37° C. with 5% CO2 for 24 hours. The assay reagent MTS; 3-(4,5-dimethylthiazol-2-yl)-5-(3-carboxymethoxyphenyl)-2-(4-sulfophenyl)-2H-tetrazolium) (Promega, Madison, Wis., USA) was subsequently added and the plate was incubated for three to four hours. Absorbance readings (at OD490) were recorded using a kinetic microplate reader (Molecular Devices, Sunnyvale, Calif., USA). The quantity of viable cells after treatment with each compound was expressed as a percentage of the viability relative to DMSO-treated control cells (average of triplicate wells±standard deviation). FIG. 5. […] Results are presented as percent viable mammalian cells (measured as average absorbance ratio relative to DMSO). The absorbance values represent an average of a minimum of three samples analyzed for each compound. Error bars represent standard deviation values for the absorbance values.

[3] = system: human keratinocytes cell line (HaCaT cells); assay: In vitro cytotoxicity, MTS assay; assay type: cell-based; conditions: 2 h
Experimental: Compounds 144, 148, 149, 151, 155, and 158 were assayed (at concentrations of 16, 32, and 64 μg/mL) against a human keratinocytes cell line (HaCaT cells) to determine their in vitro potential toxic effect. Briefly, cells were cultured in Dulbecco's Modified Eagle Medium (DMEM) supplemented with 10% fetal bovine serum (FBS) and penicillin-streptomycin at 37° C. in presence of 5% CO2. Compounds were added in the first row of the 96-well plate. Control cells received DMSO alone at a concentration equivalent to that in drug-treated wells. The cells were incubated with the compounds (in triplicate) in a 96-well plate at 37° C. in presence of 5% CO2 for two hours. The assay reagent MTS 3-(4,5-dimethylthiazol-2-yl)-5-(3-carboxymethoxyphenyl)-2-(4-sulfophenyl)-2H-tetrazolium) (Promega, Madison, Wis., USA) was subsequently added and the plate was incubated for three to four hours. Absorbance readings (at OD490) were recorded using a kinetic microplate reader (Molecular Devices, Sunnyvale, Calif., USA). The quantity of viable cells after treatment with each compound was expressed as a percentage of the viability to DMSO-treated control cells (average of triplicate wells±standard deviation).
FIG. 2. Analyzing the toxicity of compounds 144, 148, 149, 151, 155 and 158 (tested in triplicates at 16, 32 and 64 μg/mL) against human keratinocytes cells (HaCaT) using the MTS 3-(4,5-dimethylthiazol-2-yl)-5-(3-carboxymethoxyphenyl)-2-(4-sulfophenyl)-2H-tetrazolium) assay. Results are presented as percent viable cells relative to DMSO (negative control to determine a baseline measurement for the cytotoxic impact of each compound). The absorbance values represent an average of three samples analyzed for each compound. Error bars represent standard deviation values. The data were analyzed via a two-way ANOVA with post-hoc Dunnett's test for multiple comparisons. An asterisk (*) denotes statistical significance (P<0.05) between results for compounds and DMSO.

C=C(C(=O)OC)C(c1ccc2ccccc2c1)C(O)c1cccc2ccccc12 (stereo not drawn) [Compound 148]
reduction of intracellular MRSA ([1]; 4 μg/mL): 0.8 log10 | reduction of intracellular MRSA (percent) ([1]; 4 μg/mL): 84.9% | reduction of intracellular MRSA ([1]; 8 μg/mL): about 2.52 log10 | reduction of intracellular MRSA (percent) ([1]; 8 μg/mL): 99.7% | concentration tolerable to J774 cells [2]: ≤ 8000 ng/mL

C=C1C(=O)O[C@H](c2ccccc2)[C@@H]1c1cccc2ccccc12 [Compound 151]
tolerable concentration as multiple of MIC against MRSA [3]: 16 to 32 times

Reference: patent US20210317099A1, “SAFER, POTENT, AND FAST ACTING ANTIMICROBIAL AGENTS” (Purdue Research Foundation, priority 2020, published 2021)
